From patent publication US11613542B2, “Sulfonylureas and sulfonylthioureas as NLRP3 inhibitors” (Inflazome Limited, priority 2017, dated 2023)
Where a name gives a salt, the structure may show the parent alone.

How the values were obtained:
[1] = target: T1, NLRP3 (Homo sapiens, UniProt Q96P20); experiment: THP-1 cells pyroptosis assay; assay type: cell-based; design: Seed THP-1 cells (25,000 cells/well) containing 1.0 μg/ml LPS; host or cells: THP-1 cells, LPS-primed, nigericin-stimulated; conditions: THP-1 cells, 1.0 μg/ml LPS, compound 3 hrs, nigericin 5 μM 1 hr, resazurin readout; read-out: THP IC50
T1 sequence (Q96P20 whole entry): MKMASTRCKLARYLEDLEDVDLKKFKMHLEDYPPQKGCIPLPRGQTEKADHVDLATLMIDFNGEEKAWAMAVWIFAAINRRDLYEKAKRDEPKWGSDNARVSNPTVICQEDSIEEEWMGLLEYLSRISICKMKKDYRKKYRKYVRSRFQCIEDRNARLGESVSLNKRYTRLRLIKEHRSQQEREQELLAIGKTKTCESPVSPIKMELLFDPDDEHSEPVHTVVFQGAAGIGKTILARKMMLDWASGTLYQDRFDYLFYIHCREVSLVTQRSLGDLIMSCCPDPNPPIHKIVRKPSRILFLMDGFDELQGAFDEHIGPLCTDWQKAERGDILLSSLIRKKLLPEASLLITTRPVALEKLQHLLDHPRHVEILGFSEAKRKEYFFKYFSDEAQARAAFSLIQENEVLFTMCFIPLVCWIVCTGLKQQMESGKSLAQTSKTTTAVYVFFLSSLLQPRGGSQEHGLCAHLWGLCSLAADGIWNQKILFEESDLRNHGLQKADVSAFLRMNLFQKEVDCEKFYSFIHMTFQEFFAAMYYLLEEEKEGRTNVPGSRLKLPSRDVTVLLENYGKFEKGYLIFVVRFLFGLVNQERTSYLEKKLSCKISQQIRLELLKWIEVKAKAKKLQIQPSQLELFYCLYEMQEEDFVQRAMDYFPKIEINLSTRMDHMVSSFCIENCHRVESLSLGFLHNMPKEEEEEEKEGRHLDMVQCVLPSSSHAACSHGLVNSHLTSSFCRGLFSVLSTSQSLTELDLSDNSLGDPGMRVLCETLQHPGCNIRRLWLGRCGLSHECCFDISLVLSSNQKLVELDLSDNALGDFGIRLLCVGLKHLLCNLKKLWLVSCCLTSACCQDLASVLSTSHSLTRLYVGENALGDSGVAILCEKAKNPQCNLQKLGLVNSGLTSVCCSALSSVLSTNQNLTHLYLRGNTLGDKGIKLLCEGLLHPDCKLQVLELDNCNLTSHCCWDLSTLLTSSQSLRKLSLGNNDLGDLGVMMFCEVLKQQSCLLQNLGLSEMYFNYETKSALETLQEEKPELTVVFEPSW
Excerpt: NLRP and Pyroptosis It is well established that the activation of NLRP3 leads to cell pyroptosis and this feature plays an important part in the manifestation of clinical disease (Yan-gang Liu et al., Cell Death &Disease, 2017, 8(2), e2579; Alexander Wree et al., Hepatology, 2014, 59(3), 898-910; Alex Baldwin et al., Journal of Medicinal Chemistry, 2016, 59(5), 1691-171; Ema Ozaki et al., Journal of Inflammation Research, 2015, 8, 15-27; Zhen Xie & Gang Zhao, Neuroimmunology Neuroinflammation, 2014, 1(2), 60-65; Mattia Cocco et al., Journal of Medicinal Chemistry, 2014, 57(24), 10366-10382; T. Satoh et al., Cell Death &Disease, 2013, 4, e644). Therefore, it is anticipated that inhibitors of NLRP3 will block pyroptosis, as well as the release of pro-inflammatory cytokines (e.g. […]) from the cell. THP-1 Cells: Culture and Preparation THP-1 cells (ATCC #TIB-202) were grown in RPMI containing L-glutamine (Gibco #11835) supplemented with imM sodium pyruvate (Sigma #S8636) and penicillin (100 units/ml)/streptomycin (0.1 mg/ml) (Sigma #P4333) in 10% Fetal Bovine Serum (FBS) (Sigma #Fo804). The cells were routinely passaged and grown to confluency (˜10^6 cells/ml). On the day of the experiment, THP-1 cells were harvested and resuspended into RPMI medium (without FBS). The cells were then counted and viability (>90%) checked by Trypan blue (Sigma #T8154). Appropriate dilutions were made to give a concentration of 625,000 cells/ml. To this diluted cell solution was added LPS (Sigma #L4524) to give a […] Final Assay Concentration (FAC). 40 μl of the final preparation was aliquoted into each well of a 96-well plate. The plate thus prepared was used for compound screening. THP-1 Cells Pyroptosis Assay The following method step-by-step assay was followed for compound screening. • 1. Seed THP-1 cells (25,000 cells/well) containing 1.0 μg/ml LPS in 40 μl of RPMI medium (without FBS) in 96-well, black walled, clear bottom cell culture plates coated with poly-D-lysine (VWR #734-0317) • 2. Add […] compound (8 points half-log dilution, with 10 μM top dose) or vehicle (DMSO 0.1% FAC) to the appropriate wells • 3. […] Add 5 μl nigericin (Sigma #N7143) (FAC 5 μM) to all wells • 5. […] At the end of the incubation period, spin plates at 300 xg for 3 mins and remove supernatant • 7. Then add 50 μl of resazurin (Sigma #R7017) (FAC 100μ M resazurin in RPMI medium without FBS) and incubate plates for a further 1-2 hrs at 37° C. and 5% CO2 • 8. Plates were read in an Envision reader at Ex 560 nm and Em 590 nm • 9. IC50 data is fitted to a non-linear regression equation (log inhibitor vs response-variable slope 4-parameters) [table]

[2] = target: T1, NLRP3; experiment: Human whole blood IL1β release assay; assay type: cell-based; design: Human whole blood in Li-heparin tubes was obtained from healthy donors; from tissue; host or cells: human whole blood from healthy donors, LPS-primed, nigericin-stimulated; conditions: human whole blood, 1 μg/ml LPS, compound 3 hrs, nigericin 10 μM 1 hr, IL-1β AlphaLisa; read-out: HWB IC50
Procedure: Human Whole Blood IL1β Release Assay
For systemic delivery, the ability to inhibit NLRP3 when the compounds are present within the bloodstream is of great importance. For this reason, the NLRP3 inhibitory activity of a number of compounds in human whole blood was investigated in accordance with the following protocol.
Human whole blood in Li-heparin tubes was obtained from healthy donors from a volunteer donor panel. • 1. Plate out 80 μl of whole blood containing 1 μg/ml of LPS in 96-well, clear bottom cell culture plate (Corning #3585) • 2. Add 10 μl compound (8 points half-log dilution with 10 μM top dose) or vehicle (DMSO 0.1% FAC) to the appropriate wells • 3. Incubate for 3 hrs at 37° C., 5% CO2 • 4. Add 10 μl Nigericin (Sigma #N7143) (10 μM FAC) to all wells • 5. Incubate for 1 hr at 37° C., 5% CO2 • 6. At the end of the incubation period, spin plates at 300 xg for 5 mins to pellet cells and remove 20 μl of supernatant and add to 96-well v-bottom plates for IL-1β analysis (note: these plates containing the supernatants can be stored at −80° C. to be analysed at a later date) • 7. IL-1β was measured according to the manufacturer protocol (Perkin Elmer-AlphaLisa IL-1 Kit AL220F-5000) • 8. IC50 data is fitted to a non-linear regression equation (log inhibitor vs response-variable slope 4-parameters)

[3] = Pharmacokinetic parameters in male Sprague Dawley rats (intravenous and oral administration); assay type: in vivo; conditions: intravenous administration, rat plasma; dose per compound (mg/kg)
Procedure: Pharmacokinetic parameters were determined in male Sprague Dawley rats (Charles River, UK, 250-350 g; or Vital River Laboratory Animal Technology Co Ltd, Beijing, China, 7-9 weeks old). Animals were individually housed during the study and maintained under a 12 h light/dark cycle. Animals had free access to food and water except that some orally dosed animals were food deprived overnight prior to the study.
For intravenous administration, compounds were formulated as a solution in water or DMSO:PBS [10:90] in 2 mL/kg dosing volume and administered via tail vein. For oral administration, compounds were formulated as a solution in water or DMSO:water [10:90] in 5 mL/kg dosing volume and administered orally.
Serial blood samples (about 120-300 μL) were taken from each animal at each of 8 time-points post dose (0.083, 0.25, 0.5, 1, 2, 4, 8 and 24 h) or at each of 12 time-points post dose (0.03, 0.1, 0.17, 0.25, 0.5, 1, 2, 4, 6, 8,12 and 24 h) or pre-dose and at each of 9 time-points post dose (0.25, 0.5, 1, 2, 4, 6, 8, 12 and 24 h). Samples were held on ice for no longer than 30 minutes before centrifugation (10,000 rpm (8,385 g) for 3 minutes; or 5,696 rpm (3,000 g) for 15 minutes) for plasma generation. Plasma was frozen on dry ice prior to bioanalysis. PK parameters were generated from LC-MS/MS data using Dotmatics or Phoenix WinNonlin 6.3 software.

Compound	IC50 [1] [nM]	IC50 [2] [nM]	further results
CN(C)C(=O)Cn1ccc(S(=O)(=O)NC(=O)Nc2c3c(cc4c2CCC4)CCC3)n1 [Example 1, 2-(3-(N-((1,2,3,5,6,7-Hexahydro-s-indacen-4-yl)carbamoyl)sulfamoyl)-1H-pyrazol-1-yl)-N,N-dimethylacetamide, sodium salt]	< 640	< 10000	
CNC(=O)Cn1ccc(S(=O)(=O)NC(=O)Nc2c3c(cc4c2CCC4)CCC3)n1 [Example 2, 2-(3-(N-((1,2,3,5,6,7-Hexahydro-s-indacen-4-yl)carbamoyl)sulfamoyl)-1H-pyrazol-1-yl)-N-methylacetamide]	< 640	< 3200	
O=C(Nc1c2c(cc3c1CCC3)CCC2)NS(=O)(=O)c1ccn(CCN2CCCC2)n1 [Example 3, N-((1,2,3,5,6,7-Hexahydro-s-indacen-4-yl)carbamoyl)-1-(2-(pyrrolidin-1-yl)ethyl)-1H-pyrazole-3-sulfonamide, sodium salt]	< 640	< 1600	
CN(C)C1(Cn2ccc(S(=O)(=O)NC(=O)Nc3c4c(cc5c3CCC5)CCC4)n2)CC1 [Example 11, 1-((1-(Dimethylamino)cyclopropyl)methyl)-N-((1,2,3,5,6,7-hexahydro-s-indacen-4-yl)carbamoyl)-1H-pyrazole-3-sulfonamide]	< 640	< 1600	
CN1CC(n2ccc(S(=O)(=O)NC(=O)Nc3c4c(cc5c3CCC5)CCC4)n2)C1 [Example 12, N-((1,2,3,5,6,7-Hexahydro-s-indacen-4-yl)carbamoyl)-1-(1-methylazetidin-3-yl)-1H-pyrazole-3-sulfonamide]	< 2560	< 1600	
CNCCn1ccc(S(=O)(=O)NC(=O)Nc2c3c(cc4c2CCC4)CCC3)n1 [Example 13, N-((1,2,3,5,6,7-Hexahydro-s-indacen-4-yl)carbamoyl)-1-(2-(methylamino)ethyl)-1H-pyrazole-3-sulfonamide]	< 640	< 800	
O=C(Nc1c2c(cc3c1CCC3)CCC2)NS(=O)(=O)c1ccn(C2CNC2)n1 [Example 14, 1-(Azetidin-3-yl)-N-((1,2,3,5,6,7-hexahydro-s-indacen-4-yl)carbamoyl)-1H-pyrazole-3-sulfonamide]	< 640	< 3200	
C[C@@H](Cn1ccc(S(=O)(=O)NC(=O)Nc2c3c(cc4c2CCC4)CCC3)n1)N(C)C [Example 18, (S)-1-(2-(Dimethylamino)propyl)-N-((1,2,3,5,6,7-hexahydro-s-indacen-4-yl)carbamoyl)-1H-pyrazole-3-sulfonamide]	< 160	< 800	
CN1CC(Cn2ccc(S(=O)(=O)NC(=O)Nc3c4c(cc5c3CCC5)CCC4)n2)C1 [Example 19, N-((1,2,3,5,6,7-Hexahydro-s-indacen-4-yl)carbamoyl)-1-((1-methylazetidin-3-yl)methyl)-1H-pyrazole-3-sulfonamide]	< 640	< 3200	
CN1CCC[C@@H]1Cn1ccc(S(=O)(=O)NC(=O)Nc2c3c(cc4c2CCC4)CCC3)n1 [Example 21, (R)—N-((1,2,3,5,6,7-Hexahydro-s-indacen-4-yl)carbamoyl)-1-((1-methylpyrrolidin-2-yl)methyl)-1H-pyrazole-3-sulfonamide]	< 640	< 800	
CN(C)CCn1cnc(S(=O)(=O)NC(=O)Nc2c3c(cc4c2CCC4)CCC3)c1 [Example 23, 1-(2-(Dimethylamino)ethyl)-N-((1,2,3,5,6,7-hexahydro-s-indacen-4-yl)carbamoyl)-1H-imidazole-4-sulfonamide]	< 2560	< 3200	
CN(CCO)Cc1cc(S(=O)(=O)NC(=O)Nc2c3c(cc4c2CCC4)CCC3)nn1C [Example 124, N-((1,2,3,5,6,7-Hexahydro-s-indacen-4-yl)carbamoyl)-5-(((2-hydroxyethyl)(methyl)amino)methyl)-1-methyl-1H-pyrazole-3-sulfonamide]	< 160		AUC [3]: 2067.0 ng·h/mL; Cl [3]: 8.1 mL/min/kg; T1/2 [3]: 14.2 h; Vdss [3]: 1.9 L/kg
COCCNC(=O)c1cc(S(=O)(=O)NC(=O)Nc2c3c(cc4c2CCC4)CCC3)nn1C [Example 175, 3-(N-((1,2,3,5,6,7-Hexahydro-s-indacen-4-yl)carbamoyl)sulfamoyl)-N-(2-methoxyethyl)-1-methyl-1H-pyrazole-5-carboxamide, partial ammonium salt]	< 10000		
CN(C)CCn1cc(S(=O)(=O)NC(=O)Nc2c3c(cc4c2CCC4)CCC3)cn1 [Example 182, 1-(2-(Dimethylamino)ethyl)-N-((1,2,3,5,6,7-hexahydro-s-indacen-4-yl)carbamoyl)-1H-pyrazole-4-sulfonamide]	< 2560		
CC(C)c1cc(Cl)cc(C(C)C)c1NC(=O)NS(=O)(=O)c1ccn(C(C)(C)CN(C)C)n1 [Example 200, N-((4-Chloro-2,6-diisopropylphenyl)carbamoyl)-1-(1-(dimethylamino)-2-methylpropan-2-yl)-1H-pyrazole-3-sulfonamide]	< 2560		
CC(C)c1cc(F)cc(C(C)C)c1NC(=O)NS(=O)(=O)c1ccn(C(C)(C)CN(C)C)n1 [Example 201, 1-(1-(Dimethylamino)-2-methylpropan-2-yl)-N-((4-fluoro-2,6-diisopropylphenyl)carbamoyl)-1H-pyrazole-3-sulfonamide]	< 2560		
C[C@@H](CN(C)C)n1ccc(S(=O)(=O)NC(=O)Nc2c3c(cc4c2CCC4)CCC3)n1 [Example 203, (S)-1-(1-(Dimethylamino)propan-2-yl)-N-((1,2,3,5,6,7-hexahydro-s-indacen-4-yl)carbamoyl)-1H-pyrazole-3-sulfonamide]	< 640		
